Molecules are shown by their SMILES.

For the assay, the system named is female mice of the C57BL/6J strain. The assay is described as follows: Lowering of serum cholesterol level in mice subjected to a fatty diet (single dose). It is filed as in vivo. Conditions: total serum cholesterol; female C57BL/6J mice on fatty diet (1.25% cholesterol, 0.5% cholic acid); single dose 100 mg/kg by tubage, suspension in 3% aqueous gum. On the procedure: The antiatheromatous activity of the compounds according to the invention was evaluated as a function of their ability to lower the serum cholesterol level in mice subjected to a fatty diet. […] This correlation affords a test which is more rapid than direct experiments on the atheromatous plaque, which require a lengthy treatment of the animals and an expensive histological study of the walls of the aortic arch.
The test used consists in administering a single dose of the compound to female mice of the C57BL/6J strain. The protocol is as follows: On the first day (D0), the mice are fasted from 9 am to 5 pm, a blood sample being taken at 2 pm. At 5 pm, a given amount of food (a fatty diet comprising 1.25% of cholesterol and 0.5% of cholic acid) is distributed. On the second day (D1), the food leftovers are weighed at 9 am and the mice are fasted from 9 am to 2 pm. A blood sample is taken at 2 pm. For the treated groups of mice, the compound is administered at 9 am on the second day (D1) by tubage in the form of a suspension in a 3% aqueous solution of gum. The control groups receive only the aqueous gum.
The compounds were tested at a dose of 100 mg/kg. The total serum cholesterol is assayed and the results are expressed as the percentage inhibition of the increase in cholesterolemia compared with the control group.
As for `CC(=O)OC[C@H]1O[C@H](Oc2ccc(C(=O)c3ccc(C#N)cc3)cc2)[C@H](OC(C)=O)[C@@H](OC(C)=O)[C@@H]1OC(C)=O` [Example 1, [4-(4-Cyanobenzoyl)phenyl]2,3,4,6-tetra-O-acetyl-α-D-glucopyranoside], the “Activity (%): percentage inhibition of the increase in cholesterolemia compared with the control group” value is −27%.

`N#Cc1ccc(C(=O)c2ccc(O[C@H]3O[C@H](CO)[C@@H](O)[C@H](O)[C@H]3O)cc2)cc1` [Example 2, [4-(4-Cyanobenzoyl)phenyl]α-D-glucopyranoside]: the “Activity (%): percentage inhibition of the increase in cholesterolemia compared with the control group” value is recorded as −23%.

Take `CC(=O)OC[C@H]1O[C@H](Oc2ccc(C(=O)c3ccc(C#N)cc3)cc2)[C@@H](OC(C)=O)[C@@H](OC(C)=O)[C@@H]1OC(C)=O` [Example 3, [4-(4-Cyanobenzoyl)phenyl]2,3,4,6-tetra-O-acetyl-α-D-mannopyranoside]: the “Activity (%): percentage inhibition of the increase in cholesterolemia compared with the control group” value is reported as −10%. With `N#Cc1ccc(C(=O)c2ccc(O[C@H]3O[C@H](CO)[C@@H](O)[C@H](O)[C@@H]3O)cc2)cc1` [Example 4, [4-(4-Cyanobenzoyl)phenyl]α-D-mannopyranoside], the “Activity (%): percentage inhibition of the increase in cholesterolemia compared with the control group” value is recorded as −38%.

For the compound `CC(=O)OC[C@H]1O[C@H](Oc2ccc(C(=O)c3ccc(C#N)cc3)cc2)[C@H](OC(C)=O)[C@@H](OC(C)=O)[C@H]1OC(C)=O` [Example 5, [4-(4-Cyanobenzoyl)phenyl]2,3,4,6-tetra-O-acetyl-α-D-galactopyranoside], the “Activity (%): percentage inhibition of the increase in cholesterolemia compared with the control group” value is given as −32%.

Take `N#Cc1ccc(C(=O)c2ccc(O[C@H]3O[C@H](CO)[C@H](O)[C@H](O)[C@H]3O)cc2)cc1` [Example 6, [4-(4-Cyanobenzoyl)phenyl]α-D-galactopyranoside]: the “Activity (%): percentage inhibition of the increase in cholesterolemia compared with the control group” value is reported as −35%. Next, `CC(=O)O[C@@H]1[C@@H](Oc2ccc(C(=O)c3ccc(C#N)cc3)cc2)OC[C@@H](OC(C)=O)[C@H]1OC(C)=O` [Example 7, [4-(4-Cyanobenzoyl)phenyl]2,3,4-tri-O-acetyl-α-D-arabinopyranoside]: −25%; `N#Cc1ccc(C(=O)c2ccc(O[C@H]3OC[C@@H](O)[C@@H](O)[C@@H]3O)cc2)cc1` [Example 8, [4-(4-Cyanobenzoyl)phenyl]α-D-arabinopyranoside]: −29%. Next, `N#Cc1ccc(C(=O)c2ccc(O[C@H]3OC[C@@H](O)[C@H](O)[C@@H]3O)cc2)cc1` [Example 10, [4-(4-Cyanobenzoyl)phenyl]α-D-lyxopyranoside]: −48%. Take `N#Cc1ccc(C(=O)c2ccc(O[C@H]3OC[C@@H](O)[C@@H](O)[C@H]3O)cc2)cc1` [Example 11, [4-(4-Cyanobenzoyl)phenyl]α-D-ribopyranoside]: the “Activity (%): percentage inhibition of the increase in cholesterolemia compared with the control group” value is −26%.

Values taken from patent US20030139349A1, “Benzophenone alpha-d-glycopyranosides, preparation and therapeutic use” (priority 2002, published 2003).
